Patent US9233095B2, “Small molecule RNase inhibitors and methods of use” (University of Rochester, priority 2011, dated 2016)
Converted amounts (≈) assume the structure as drawn. Read-outs that look alike come from different tables or passages of the source.

Legend:
[1] = system: E. faecalis; test: CLSI broth microdilution MIC; assay type: cell-based, Enterococcus faecalis
From the text: (§1) In some examples, compounds can be further assayed using the Mueller Hinton (MH) broth antibacterial assay as specified by the Clinical and Laboratory Standards Institute MIC broth microdilution protocol (see Methods for Dilution Antimicrobial Susceptibility Tests for Bacteria That Grow Aerobically; Approved Standard, In The Clinical and Laboratory Standards Institute (CLSI, formerly NCCLS), 7th ed., January 2006, 26 (2), M7-A7; see also Performance Standards for Antimicrobial Susceptibility Testing; Eighteenth Informational Supplement, In The Clinical and Laboratory Standards Institute (CLSI, formerly NCCLS), January 2008, 28 (1), M100-S18).
(§2) With the exception of RN4220-derivatives, in vitro activities of RNPA1000 against bacteria were determined by the broth microdilution method according to the Clinical and Laboratory Standards Institute (CLSI) guidelines using cation adjusted Mueller-Hinton broth or MH broth supplemented with 5% lysed horse blood (for testing Streptotococcus spp.). Microtiter plates containing serial dilutions of RNPA1000 (0, 4, 8, 16, 32, 64, and 128 μg/ml) were inoculated with 10^5 colony forming units (CFU)/ml and incubated for 18 hr at 37° C. […] The MIC value for each S. aureus strain was determined to be the median score of replicate measurements (n=5). Wells containing concentrations of RNPA1000≧MIC were plated for minimal bactericidal measurement. Where possible, experiments with VRSA strains were performed in a laminar flow hood to minimize potential for equipment contamination. For RN4220 cells containing plasmid vector (pCN51), RnpA overproducing plasmid (pRNPA-S) or RnpA underproducing plasmid (pRNPA-A.S.) in vitro antimicrobial activity of RNPA1000 was performed by the microdilution method as described above, except that cells were grown in Tryptic Soy Broth medium supplemented with 2.5 μM CdCl2 and 0, 1, 2, 4, 8, 16, 32, 64, or 128 μg/ml RNPA1000. Time-kill assays were also performed to monitor the antimicrobial properties of RNPA1000 for S. aureus strain UAMS-1 in the absence and presence of 0.25, 0.5, 2, and 4 times the strain's MIC for oxacillin (1 μg/ml), rifampicin (0.5 μg/ml), vancomycin (2 μg/ml), or daptomycin (1 μg/ml). The indicated amount of RNPA1000 and/or commercial antibiotic were added to mid-exponential phase (2×10^8 cfu/ml) S. aureus strain UAMS-1 cells and incubated at 37° C. Aliquots were removed at 0, 2, 4, 8, and 24 hr post-antimicrobial challenge, serial diluted, and plated to enumerate resulting cfu/ml. All time-kill assays were repeated at least 3 times.

[2] = system: S. pneumoniae; test: CLSI broth microdilution MIC; assay type: cell-based; settings: Streptococcus pneumoniae
From the text: as §1, §2

[3] = system: S. pneumoniae (MDR); test: CLSI broth microdilution MIC; assay type: cell-based; settings: Streptococcus pneumoniae
From the text: as §1, §2

[4] = system: S. pyogenes; test: CLSI broth microdilution MIC; assay type: cell-based; settings: Streptococcus pyogenes; S. pyogenes Isolate 1
From the text: as §1, §2

[5] = system: S. epidermidis; test: CLSI broth microdilution MIC; assay type: cell-based; settings: Staphylococcus epidermidis
From the text: as §1, §2

[6] = system: S. aureus (VRSA); test: CLSI broth microdilution MIC; assay type: cell-based; settings: Staphylococcus aureus
From the text: as §1, §2

[7] = system: S. agalactiae; test: CLSI broth microdilution MIC; assay type: cell-based; settings: Streptococcus agalactiae
From the text: as §1, §2

[8] = system: S. aureus (VISA); test: CLSI broth microdilution MIC; assay type: cell-based; settings: Staphylococcus aureus
From the text: as §1, §2

[9] = system: B. cereus; test: CLSI broth microdilution MIC; assay type: cell-based; settings: Bacillus cereus; B. cereus Isolate 1
From the text: as §1, §2

[10] = system: S. aureus (MRSA); test: CLSI broth microdilution MIC; assay type: cell-based; settings: Staphylococcus aureus
From the text: as §1, §2

[11] = system: S. sanguis; test: CLSI broth microdilution MIC; assay type: cell-based; settings: S. sanguis Isolate 1
From the text: as §1, §2

[12] = system: S. bovis; test: CLSI broth microdilution MIC; assay type: cell-based; settings: Salmonella enterica; S. bovis ATCC49147
From the text: as §1, §2

[13] = target: T1, S. aureus RNase J1 (Staphylococcus aureus, UniProt Q2FZG9); test: ribonuclease specificity test; assay type: biochemical; settings: any concentration tested (0-750 μM)
T1 construct: hexahistidine-tag (N); made in house; host or cells: E. coli BL21 (DE3)
From the text: (§3) In total, fourteen molecules inhibited the enzyme's RNA turnover activity by ≧50%. A gel-based secondary assay confirmed that five of these molecules were bona-fide inhibitors of RnpA-mediated RNA degradation (FIG. 3B).

[14] = target: T2, RNase I (Escherichia coli, UniProt P21338); test: ribonuclease specificity test; assay type: biochemical; settings: any concentration tested (0-750 μM)
T2 construct: purchased
From the text: as §3

[15] = target: T3, RNase A (Bos taurus, UniProt P61823); test: ribonuclease specificity test; assay type: biochemical; settings: any concentration tested (0-750 μM)
T3 construct: purchased
From the text: as §3

[16] = target: E. coli RNase III (Escherichia coli, UniProt P0A7Y0); test: ribonuclease specificity test; assay type: biochemical; settings: data not shown
From the text: as §3

[17] = target: T4, E. coli RNase HI (Escherichia coli, UniProt P0A7Y4); test: ribonuclease specificity test; assay type: biochemical; settings: any concentration tested (0-750 μM)
T4 construct: purchased
From the text: as §3

E. coli RNase III, sequence (P0A7Y0 whole entry): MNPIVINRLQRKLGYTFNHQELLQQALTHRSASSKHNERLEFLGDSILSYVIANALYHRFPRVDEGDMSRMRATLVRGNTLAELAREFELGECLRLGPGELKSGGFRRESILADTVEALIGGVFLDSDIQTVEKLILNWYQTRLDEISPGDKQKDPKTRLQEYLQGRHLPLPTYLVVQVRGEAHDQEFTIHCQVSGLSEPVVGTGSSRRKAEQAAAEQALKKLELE
T4 sequence (P0A7Y4 whole entry): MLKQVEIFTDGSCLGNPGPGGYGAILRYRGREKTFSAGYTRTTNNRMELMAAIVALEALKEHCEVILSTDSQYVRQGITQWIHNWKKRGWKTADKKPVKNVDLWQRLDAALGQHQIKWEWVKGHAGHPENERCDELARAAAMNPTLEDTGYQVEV
T3 sequence (P61823 27-150): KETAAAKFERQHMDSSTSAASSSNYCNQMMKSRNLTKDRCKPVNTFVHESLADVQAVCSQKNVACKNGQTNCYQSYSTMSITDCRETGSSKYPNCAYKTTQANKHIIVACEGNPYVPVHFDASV
T2 sequence (P21338 24-268): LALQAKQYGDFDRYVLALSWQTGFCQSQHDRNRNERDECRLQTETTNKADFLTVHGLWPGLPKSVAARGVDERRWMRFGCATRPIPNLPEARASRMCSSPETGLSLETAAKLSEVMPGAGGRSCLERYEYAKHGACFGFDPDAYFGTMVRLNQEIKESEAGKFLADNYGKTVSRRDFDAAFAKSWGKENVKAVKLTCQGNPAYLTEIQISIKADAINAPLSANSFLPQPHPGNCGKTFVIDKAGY

## Cc1cc(/C=C(/C#N)C(=O)Nc2cccc(Br)c2)c(C)n1-c1ccc(C(=O)O)cc1 [RNPA1000]
[1]
  antimicrobial activity in words: mild activity
[1]; E. faecalis Isolate 1
  MIC: 64 µg/mL (≈ 138 µM)
[1]; E. faecalis Isolate 3
  MIC: 64 µg/mL (≈ 138 µM)
[1]; E. faecalis Isolate 4
  MIC: 64 µg/mL (≈ 138 µM)
[1]; E. faecalis Isolate 5
  MIC: 64 µg/mL (≈ 138 µM)
[1]; Enterococcus faecalis, E. faecalis Isolate 2, read-out: MIC
  MIC: 64 µg/mL (≈ 138 µM)
[2]; S. pneumoniae Isolate 1
  MIC: 16 µg/mL (≈ 34.5 µM)
[2]; S. pneumoniae Isolate 2
  MIC: 16 µg/mL (≈ 34.5 µM)
[2]; S. pneumoniae Isolate 3
  MIC: 16 µg/mL (≈ 34.5 µM)
[2]; S. pneumoniae Isolate 4
  MIC: 32 µg/mL (≈ 68.9 µM)
[2]; S. pneumoniae Isolate 5
  MIC: 16 µg/mL (≈ 34.5 µM)
[3]; S. pneumoniae (MDR) Isolate 1
  MIC: 32 µg/mL (≈ 68.9 µM)
[3]; S. pneumoniae (MDR) Isolate 2
  MIC: 32 µg/mL (≈ 68.9 µM)
[3]; S. pneumoniae (MDR) Isolate 3
  MIC: 16 µg/mL (≈ 34.5 µM)
[3]; S. pneumoniae (MDR) Isolate 4
  MIC: 32 µg/mL (≈ 68.9 µM)
[3]; S. pneumoniae (MDR) Isolate 5
  MIC: 16 µg/mL (≈ 34.5 µM)
[4]
  MIC: 8 µg/mL (≈ 17.2 µM)
[5]; S. epidermidis Isolate 1
  MIC: 16 µg/mL (≈ 34.5 µM)
[5]; S. epidermidis Isolate 2
  MIC: 8 µg/mL (≈ 17.2 µM)
[5]; S. epidermidis Isolate 3
  MIC: 8 µg/mL (≈ 17.2 µM)
[5]; S. epidermidis Isolate 4
  MIC: 8 µg/mL (≈ 17.2 µM)
[5]; S. epidermidis Isolate 5
  MIC: 8 µg/mL (≈ 17.2 µM)
[6]; strain VRSA-VRS1
  MIC: 16 µg/mL (≈ 34.5 µM)
[6]; strain VRSA-VRS10
  MIC: 32 µg/mL (≈ 68.9 µM)
[7]; S. agalactiae Isolate 1
  MIC: 16 µg/mL (≈ 34.5 µM)
[7]; S. agalactiae Isolate 2
  MIC: 32 µg/mL (≈ 68.9 µM)
[7]; S. agalactiae Isolate 3
  MIC: 32 µg/mL (≈ 68.9 µM)
[7]; S. agalactiae Isolate 4
  MIC: 32 µg/mL (≈ 68.9 µM)
[8]; NRS 1 / VISA, strain VISA-NRS1
  MIC: 32 µg/mL (≈ 68.9 µM)
[8]; NRS 3 / VISA, strain VISA-NRS3
  MIC: 16 µg/mL (≈ 34.5 µM)
[8]; VISA Isolate 3
  MIC: 16 µg/mL (≈ 34.5 µM)
[8]; VISA Isolate 4
  MIC: 32 µg/mL (≈ 68.9 µM)
[8]; VISA Isolate 5
  MIC: 16 µg/mL (≈ 34.5 µM)
[9]
  MIC: 8 µg/mL (≈ 17.2 µM)
[10]; MRSA / USA100, strain USA100
  MIC: 26 µg/mL (≈ 56 µM)
[10]; MRSA / USA200, strain USA200
  MIC: 32 µg/mL (≈ 68.9 µM)
[10]; MRSA / USA300, strain USA300 (USA300-0114)
  MIC: 23 µg/mL (≈ 49.5 µM)
[10]; MRSA / USA400, strain USA400
  MIC: 23 µg/mL (≈ 49.5 µM)
[10]; MRSA / USA500, strain USA500
  MIC: 23 µg/mL (≈ 49.5 µM)
[10]; MRSA / USA600, strain USA600
  MIC: 32 µg/mL (≈ 68.9 µM)
[10]; MRSA / USA700, strain USA700
  MIC: 32 µg/mL (≈ 68.9 µM)
[10]; MRSA / USA800, strain USA800
  MIC: 23 µg/mL (≈ 49.5 µM)
[10]; MRSA, strain USA900
  MIC: 32 µg/mL (≈ 68.9 µM)
[10]; MRSA, strain USA1000
  MIC: 29 µg/mL (≈ 62.5 µM)
[10]; MRSA, strain USA1100
  MIC: 32 µg/mL (≈ 68.9 µM)
[11]
  MIC: 16 µg/mL (≈ 34.5 µM)
[12]
  MIC: 32 µg/mL (≈ 68.9 µM)
[13]
  effect on S. aureus RNase J1 activity: did not affect the activity
[14]
  effect on RNase I activity: did not affect the activity
[15]
  effect on RNase A activity: did not affect the activity
[16]
  IC50: 500 to 750 µM
[17]
  effect on E. coli RNase HI activity: did not affect the activity
